Literature values, collected in patent US20160000088A1, “PROCESS FOR PRODUCING SILVER-ION ANTIBACTERIAL LIQUID, SILVER-ION ANTIBACTERIAL LIQUID PRODUCED BY SAID PROCESS, AND SILVER-ION-CONTAINING PRODUCT CONTAINING SAID ANTIBACTERIAL LIQUID” (TAIKI CORP., LTD., priority 2013, published 2016).

Test system: Staphylococcus aureus
Details: silver ion concentration of 10 ppb; nutrient broth added (NB culture)

silver ions
decrease of bacterial count: ≥ 2 logs
